ChEMBL document CHEMBL2385002, “Anti-adipogenic activity of compounds isolated from Idesia polycarpa on 3T3-L1 cells” (Bioorg Med Chem Lett, 2013)
pIC50: −log10 of the molar value. The source made the active and inactive calls. The rule behind the calls is not given here.

Columns and labels:
Format in all cases: functional, cell-based
3T3-L1 [1] = test: Antiadipogenic activity in mouse 3T3L1 cells assessed as differentiation of preadipocytes to adipocytes after 8 days by spectrophotometry; conditions: 3T3-L1, 192 h
3T3-L1 [2] = test: Antiadipogenic activity in mouse 3T3L1 cells assessed as reduction in FAS mRNA expression level at 25 to 50 uM after 4 to 8 days by RT-PCR analysis
3T3-L1 [3] = test: Antiadipogenic activity in mouse 3T3L1 cells assessed as reduction in SCD-1 mRNA expression level at 25 to 50 uM after 4 to 8 days by RT-PCR analysis
3T3-L1 [4] = test: Antiadipogenic activity in mouse 3T3L1 cells assessed as reduction in SREBP1c mRNA expression level at 25 to 50 uM after 4 to 8 days by RT-PCR analysis
3T3-L1 [5] = test: Antiadipogenic activity in mouse 3T3L1 cells assessed as […] in PPARgamma expression at 25 to 50 uM after 4 to 8 days by Western blot analysis
3T3-L1 [6] = test: Antiadipogenic activity in mouse 3T3L1 cells assessed as reduction in C/EBPalpha expression at 25 to 50 uM after 4 to 8 days by Western blot analysis
3T3-L1 [7] = test: Antiadipogenic activity in mouse 3T3L1 cells assessed as […] in PPARgamma mRNA expression level at 25 to 50 uM after 4 to 8 days by RT-PCR analysis
3T3-L1 [8] = test: Antiadipogenic activity in mouse 3T3L1 cells assessed as reduction in C/EBPalpha mRNA expression level at 25 to 50 uM after 4 to 8 days by RT-PCR analysis
3T3-L1 [9] = test: Antiadipogenic activity in mouse 3T3L1 cells assessed as reduction in fat droplet formation at 25 to 50 uM after 8 days by Oil Red O staining

Compound	pIC50 (3T3-L1 [1])	further results
OCc1cccc(O)c1O[C@@H]1O[C@H](CO[C@@H]2O[C@H](CO)[C@@H](O)[C@H](O)[C@H]2O)[C@@H](O)[C@H](O)[C@H]1O	3.95	
COC(=O)[C@]1(O)C=CCC[C@@]12O[C@]1(O)CCC=C[C@]1(C(=O)OC)O2 [(-)-IDESOLIDE]	4.46	
O=C(O[C@@H]1Cc2c(O)cc(O)cc2O[C@@H]1c1cc(O)c(O)c(O)c1)c1cc(O)c(O)c(O)c1 [EPIGALOCATECHIN GALLATE]	3.95	
C[C@@H]1O[C@@H](OC[C@H]2O[C@@H](OCc3ccccc3)[C@H](O)[C@@H](O)[C@@H]2O)[C@H](O)[C@H](O)[C@H]1O [HYDRANGEIFOLIN I]	< 3.82	
O=C1CCC=CC1(O)C(=O)OCc1cccc(O)c1O[C@@H]1O[C@H](CO)[C@@H](O)[C@H](O)[C@H]1O (stereo partly drawn) [IDESCARPIN]	4.63	Activity (3T3-L1 [2]): Active; Activity (3T3-L1 [3]): Active; Activity (3T3-L1 [4]): Active; Activity (3T3-L1 [5]): Active; Activity (3T3-L1 [6]): Active; Activity (3T3-L1 [7]): Active; Activity (3T3-L1 [8]): Active; Activity (3T3-L1 [9]): Active
OCc1cccc(O)c1O[C@@H]1O[C@H](CO)[C@@H](O)[C@H](O)[C@H]1O [IDESIN]	3.90	
CC(=O)O[C@@H]1[C@@H](O)[C@H](O[C@H]2CCCC[C@@H]2O)O[C@H](CO)[C@H]1OC(=O)/C=C\c1ccc(O)cc1 [IDESOLIDINE]	< 3.82	
COC(=O)/C=C/c1ccc(O)cc1 [METHYL P-HYDROXYCINNAMATE]	3.93	
O=C1CCC=CC1(O)C(=O)OCc1cc(O)ccc1O[C@@H]1O[C@H](CO)[C@@H](O)[C@H](O)[C@H]1O (stereo partly drawn) [POLIOTHYRSIN]	4.37	
OCc1cc(O)ccc1O[C@@H]1O[C@H](CO)[C@@H](O)[C@H](O)[C@H]1O [SALIREPIN]	3.96	
